How the values were obtained:
[1] = molecular target: human Nociceptin/Orphanin FQ (N/OFQ) peptide NOP receptor (human) (UniProt P41146)
[2] = molecular target: human Nociceptin/Orphanin FQ (N/OFQ) peptide NOP receptor (human) (UniProt P41146); remark: listed apart in the source
NOP receptor = settings: cited from earlier work
Excerpt: This is in general in line with literature reports (see Table 2 of [3] that summarizes the action of these compounds in various assays/preparations at human recombinant and rodent native NOP receptors). However, there are some aspects that deserve attention.

CHO cells = test: DMR in wild type CHO cells; settings: for DMR response, CHO: CHO cells, pm ± sem
human NOP receptor [3] = molecular target: T1, human NOP receptor (Homo sapiens, UniProt P41146); type: cell-based; parameters: expressed in transfected cells; settings: comparison N/OFQ and Ac-RYYRIK-NH2
T1 sequence (P41146 whole entry): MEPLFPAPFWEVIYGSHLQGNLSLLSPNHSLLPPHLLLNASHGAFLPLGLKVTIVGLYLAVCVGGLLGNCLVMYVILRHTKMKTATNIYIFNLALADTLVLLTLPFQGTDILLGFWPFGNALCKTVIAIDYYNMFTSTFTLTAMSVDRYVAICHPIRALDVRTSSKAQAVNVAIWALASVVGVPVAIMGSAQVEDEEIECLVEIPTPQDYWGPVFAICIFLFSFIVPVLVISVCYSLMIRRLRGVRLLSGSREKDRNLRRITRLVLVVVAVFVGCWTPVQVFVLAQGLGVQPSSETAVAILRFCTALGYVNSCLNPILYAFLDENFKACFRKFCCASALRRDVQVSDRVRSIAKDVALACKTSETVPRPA

human NOP receptor [4] = molecular target: T1, human NOP receptor; test: DMR assay in CHONOP cells, agonist effects; settings: for Emax: DMR maximal effect; for DMR response, CHONOP: pm ± sem; for maximal effects compared with N/OFQ: DMR; for pEC50: DMR peak, at least 3 experiments in triplicate, inactive = no DMR response up to 1 μM, parentheses: CL95% (Fig 3)
human NOP receptor [5] = molecular target: T1, human NOP receptor; test: DMR assay in CHONOP cells, antagonism of agonist concentration response curve
mu opioid receptor = mu opioid receptor (UniProt P35372)
Sequence of mu opioid receptor (P35372 whole entry): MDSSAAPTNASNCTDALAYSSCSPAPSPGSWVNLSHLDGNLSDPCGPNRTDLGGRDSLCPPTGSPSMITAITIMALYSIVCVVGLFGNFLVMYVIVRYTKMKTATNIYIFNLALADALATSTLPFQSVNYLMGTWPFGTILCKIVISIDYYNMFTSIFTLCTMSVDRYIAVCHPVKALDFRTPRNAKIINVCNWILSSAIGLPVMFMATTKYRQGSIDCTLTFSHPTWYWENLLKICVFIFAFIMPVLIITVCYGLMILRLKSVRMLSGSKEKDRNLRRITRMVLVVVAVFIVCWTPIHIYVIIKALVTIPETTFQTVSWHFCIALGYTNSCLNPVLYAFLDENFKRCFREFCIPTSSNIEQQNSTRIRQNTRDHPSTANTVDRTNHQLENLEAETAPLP

human NOP receptor [6] = molecular target: T1, human NOP receptor; test: Classical Schild protocol, DMR in CHONOP cells
[7] = test system: NOP receptor (control neurons); settings: electrophysiology; cited from earlier work
[8] = test system: NOP receptor (transfected neurons); settings: electrophysiology; cited from earlier work
[9] = 1 μM, 37°C, * p < 0.05 vs buffer (one-way ANOVA, Dunnett's)
[10] = CHONOP cells, 1 μM, 37°C, * p < 0.05 vs buffer (one-way ANOVA, Dunnett's)
[11] = CHONOP cells, 100 μM, * p < 0.05 vs buffer

Sequence of human Nociceptin/Orphanin FQ (N/OFQ) peptide NOP receptor (human) (P41146 whole entry): as the sequence (P41146 whole entry) above

Ac-RYYRIK-NH2 (peptide)
DMR response at 1 μM, CHONOP cells [1]: 182 pm

UFP-101 (peptide)
DMR response at 1 μM, CHONOP cells (not marked as different from buffer) [1]: 40 pm
pKB (antagonist potency): rightward shift by 1 μM UFP-101 of the concentration response curve to N/OFQ at the NOP receptor, DMR, CHONOP cells [2]: 7.6 -log10(M)

[Arg^14,Lys^15]N/OFQ (peptide)
DMR response at 1 μM, CHONOP cells [1]: 271 pm

CC[C@H](C)[C@H](NC(=O)[C@H](CCCNC(=N)N)NC(=O)[C@H](Cc1ccc(O)cc1)NC(=O)[C@H](Cc1ccc(O)cc1)NC(=O)[C@H](CCCNC(=N)N)NC(C)=O)C(=O)N[C@@H](CCCCN)C(N)=O [Ac-RYYRIK-NH2]
efficacy vs N/OFQ, GTPγS binding (NOP receptor): significantly lower efficacy than N/OFQ
efficacy vs N/OFQ, NOP/G protein interaction (NOP receptor): significantly lower efficacy than N/OFQ
DMR response, CHO (CHO cells; [9]): 17±8 pm
sensitivity of DMR response to PTX (human NOP receptor [3]): equally sensitive to PTX
intrinsic activity (α) (human NOP receptor [4]): 0.89
Emax (human NOP receptor [4]; CHONOP cells): 182
DMR response, CHONOP (human NOP receptor [4]; [10]): 182±11 ^* pm
maximal effects compared with N/OFQ (human NOP receptor [4]; CHONOP): not statistically different to those of N/OFQ
negative DMR signal (human NOP receptor [4]; after 1000 sec, in some but not all experiments): concentration dependent negative signal after 1000 sec
sensitivity of DMR response to SB-612111 (human NOP receptor [5]; comparison N/OFQ and Ac-RYYRIK-NH2): equally sensitive to PTX and to the NOP selective antagonist SB-612111

C=C[C@@]1(C)CC(=O)[C@]2(O)[C@@]3(C)[C@@H](O)CCC(C)(C)[C@@H]3[C@H](O)[C@H](OC(C)=O)[C@@]2(C)O1 [FSK]
DMR response, CHO (CHO cells; 100 μM, * p < 0.05 vs buffer): -172±23 ^* pm
DMR response, CHONOP (human NOP receptor [4]; [11]): -164±15 ^* pm

C[C@H](NC(=O)CNC(=O)[C@@H](NC(=O)[C@H](Cc1ccccc1)NC(=O)CNC(=O)CNC(=O)CNCc1ccccc1)[C@@H](C)O)C(=O)N[C@@H](CCCNC(=N)N)C(=O)N[C@@H](CCCCN)C(=O)N[C@@H](CO)C(=O)N[C@@H](C)C(=O)N[C@@H](CCCNC(=N)N)C(=O)N[C@@H](CCCCN)C(=O)N[C@@H](CCCNC(=N)N)C(=O)N[C@@H](CCCCN)C(=O)N[C@@H](CC(N)=O)C(=O)N[C@@H](CCC(N)=O)C(N)=O [UFP-101, [Nphe1,Arg14,Lys15]nociceptin-NH2]
pEC50 (human NOP receptor [4]; CHONOP cells, 37°C): crc incomplete
stimulatory effect per se (human NOP receptor [4]; CHONOP, % of the maximal effects of N/OFQ): ~20%
Kb (human NOP receptor [5]): 25.1 nM

Dermorphin (peptide)
pEC50 of the DMR response, CHO cells expressing the mu opioid receptor (mu opioid receptor): 8.59 -log10(M)

UFP-112 (peptide)
DMR response at 1 μM, CHONOP cells [1]: 248 pm
intrinsic activity α (Emax relative to N/OFQ), DMR, CHONOP cells (relative to N/OFQ) [2]: 1.21
pEC50 of the DMR response (peak), CHONOP cells [2]: 8.66 -log10(M)

Cc1cccc2c1CC[C@H](CN1CCC(c3c(Cl)cccc3Cl)CC1)C[C@@H]2O [SB-612111, (-)-cis-1-methyl-7-[[4-(2,6-dichlorophenyl)piperidin-1-yl]methyl]-6,7,8,9-tetrahy dro-5H-benzocyclohepten-5-ol]
DMR response, CHO (CHO cells; [9]): 26±3 pm
effect per se in CHONOP cells (human NOP receptor [4]; CHONOP cells): did not produce any effect per se
pEC50 (human NOP receptor [4]; CHONOP cells, 37°C): inactive
DMR response, CHONOP (human NOP receptor [4]; [10]): -10±9 pm
effect on N/OFQ maximal effects (Schild) (human NOP receptor [6]; 10 nM–1 μM): without significantly affecting its maximal effects
Schild slope (human NOP receptor [6]; vs N/OFQ, Schild plot): ~1

C=CCN1CC[C@]23c4c5ccc(O)c4O[C@H]2C(=O)CC[C@@]3(O)[C@H]1C5 [Naloxone]
DMR response, CHO (CHO cells; [9]): 23±5 pm

CC(C)C1CCC(N2CCC(N3C(=O)C(=O)c4ccccc43)CC2)CC1 (centres unmarked) [AT-090]
efficacy vs N/OFQ, GTPγS binding (NOP receptor): significantly lower efficacy than N/OFQ
efficacy vs N/OFQ, NOP/G protein interaction (NOP receptor): significantly lower efficacy than N/OFQ
DMR response, CHO (CHO cells; [9]): 21±3 pm
intrinsic activity (α) (human NOP receptor [4]): 1.23
Emax (human NOP receptor [4]; CHONOP cells): 252
DMR response, CHONOP (human NOP receptor [4]; [10]): 252±15 ^* pm
maximal effects compared with N/OFQ (human NOP receptor [4]; CHONOP): not statistically different to those of N/OFQ

[F/G]N/OFQ(1–13)-NH2 (peptide)
DMR response at 1 μM, CHONOP cells [1]: 200 pm
intrinsic activity α (Emax relative to N/OFQ), DMR, CHONOP cells (relative to N/OFQ) [2]: 0.98
pEC50 of the DMR response (peak), CHONOP cells [2]: 8.06 -log10(M)

Nc1ncnc2c1ncn2[C@@H]1O[C@H](COP(=O)(O)OP(=O)(O)OP(=O)(O)O)[C@@H](O)[C@H]1O [ATP]
DMR response, CHO (CHO cells; 100 μM, * p < 0.05 vs buffer): 177±15 ^* pm
DMR response, CHONOP (human NOP receptor [4]; [11]): 185±12 ^* pm

O=C1NCN(c2ccccc2)C12CCN(C1Cc3cccc4cccc1c34)CC2 (centres unmarked) [Ro 65–6570]
activity in wild type CHO cells (CHO cells; 10 μM): exhibited a DMR response in wild type CHO cells
DMR response, CHO (CHO cells; [9]): 23±8 pm

CCn1c(=O)n(C2=C(CO)CN(CC3CCCCCCC3)CC2)c2ccccc21 [Trap-101]
activity in control neurons [7]: pure antagonists
activity in NOP transfected neurons [8]: inverse agonists

PWT2-N/OFQ (peptide)
DMR response at 0.1 μM, CHONOP cells [1]: 198 pm
intrinsic activity α (Emax relative to N/OFQ), DMR, CHONOP cells (relative to N/OFQ) [2]: 0.97
pEC50 of the DMR response (peak), CHONOP cells, tested up to 0.1 μM [2]: 8 -log10(M)

[Nphe^1]N/OFQ(1–13)-NH2 (peptide)
DMR response at 1 μM, CHONOP cells [1]: 180 pm

Reference: article PMC6117024, “NOP receptor pharmacological profile – A dynamic mass redistribution study” (PLoS ONE, 2018)
